According to patent US20120328717A1, “PHARMACEUTICAL KIT FOR TREATING NEURONAL DAMAGES” (priority 2011, published 2012):

Columns and labels:
[1] = test system: middle cerebral artery occlusion (MCAO) animal models with ischemic strokes; assay: Evaluation of brain edema (brain water content, wet-dry method) after MCAO; format: in vivo, Sprague-Dawley rats; settings: Experiment 1; 48 hr after MCAO and reperfusion; 45 mg/kg MgSO4 i.v., 6 mg/kg nimesulide i.p.
Protocol: In the present experiments, middle cerebral artery occlusion (MCAO) known in the art was performed on SD rats to establish animal models with ischemic strokes by using occluding intra-luminal suture. The process for performing MCAO is briefly described as follows. A segment of 4-O nylon with blunted tip was inserted through the right internal carotid artery to occlude blood flow of middle cerebral artery (MCA). Laser Doppler flowmeter was used to monitor changes of cerebral blood flows in the MCA territory. […] Anesthetic time was limited to 20 minutes to minimize the influence of isoflurane on the outcome of MCAO. After recovery from anesthesia, rats without body asymmetry were regarded as failed MCAO models and excluded from further experiments. After MCAO was established for 90 min, intra-luminal occluder was removed to re-perfuse the brain. […] Herein, cerebral edema was determined by measuring the brain water content with the wet-dry method after MCAO was established for 48 hr. […] The difference of water content in ipsilateral and contralateral hemisphere (Δ% of water content) 48 hr after ischemia-reperfusion injury was evaluated with the wet-dry method.

[2] = test system: middle cerebral artery occlusion (MCAO) animal models with ischemic strokes; assay: Evaluation of infarct volume by TTC staining after MCAO and reperfusion; format: in vivo, Sprague-Dawley rats; settings: Experiment 1; MCAO 90 min, reperfusion 72 hr; single dose: 45 mg/kg MgSO4 i.v. after MCAO or 6 mg/kg nimesulide i.p. before reperfusion
Protocol: 150 Sprague-Dawley rats (SD rats) weighing 220-250 gm were purchased from the Laboratory Animal Center of National Chung Kung University. In the present experiments, middle cerebral artery occlusion (MCAO) known in the art was performed on SD rats to establish animal models with ischemic strokes by using occluding intra-luminal suture. The process for performing MCAO is briefly described as follows. A segment of 4-O nylon with blunted tip was inserted through the right internal carotid artery to occlude blood flow of middle cerebral artery (MCA). Laser Doppler flowmeter was used to monitor changes of cerebral blood flows in the MCA territory. […] Anesthetic time was limited to 20 minutes to minimize the influence of isoflurane on the outcome of MCAO. After recovery from anesthesia, rats without body asymmetry were regarded as failed MCAO models and excluded from further experiments. After MCAO was established for 90 min, intra-luminal occluder was removed to re-perfuse the brain. […] When SD rats in each group were treated with MCAO for 90 min and reperfusion for 72 hr, infarct volumes were evaluated by TTC staining.

| Structure (SMILES) | post-ischemia brain edema (Δ% of water content, ipsilateral vs contralateral hemisphere) compared to SVe group [1] | infarct volume compared to SVe group [2] |
| --- | --- | --- |
| O=S(=O)([O-])[O-].[Mg+2] [MgSO4] | cannot be Observed | a decrease of infarct volume was not observed |
| CS(=O)(=O)Nc1ccc([N+](=O)[O-])cc1Oc1ccccc1 [nimesulide, N-(4-Nitro-2-phenoxyphenyl)methane-sulfonamide] | cannot be Observed | no neuro-protective effect |
